Results as given in publication PMC12526212, “Novel Isolongifolenone-Based Caprolactam Derivatives as Potential Anticancer Agents via the p53/mTOR/Autophagy Pathway” (Molecules, 2025).

Columns and labels:
MCF-7 xenograft = assay: Zebrafish MCF-7 xenograft model; assay type: in vivo
Description: Zebrafish have become a well-established model for both anticancer drug discovery and toxicity evaluation. This animal model affords several unique advantages, including rapid development, optical transparency, and genetic conservation with humans. These features make zebrafish particularly suitable for high-throughput in vivo screening and mechanistic studies in oncology research. Tumor burden in zebrafish xenografts is commonly quantified from Dil/DiI-labeled fluorescence area or integrated intensity, which correlates with cell number and treatment response. To assess the in vivo antitumor efficacy of compound E10, we established a zebrafish xenograft model. Briefly, CM-Dil-labeled MCF-7 cells (showing red fluorescence) were microinjected into the yolk sacs of zebrafish embryos. The xenografted zebrafish were then randomly assigned into five groups: three E10-treatment groups (0.5 µg/mL, 1.0 µg/mL, and 2.0 µg/mL), a Doxorubicin (Dox) positive control group, and a PBS negative control group.
All experimental procedures were approved by ACUC of Shandong Academy of Sciences (Animal Care and Use Committee). Wild-type AB of zebrafish were obtained from Biology Institute, Qilu University of Technology. The embryos were incubated in special embryonic medium (0.17 mM KCl, 5.0 mM NaCl, 0.4 mM CaCl2, and 0.16 mM MgSO4) at 28 °C. 48 h-old zebrafish embryos were microinjected with CM-Dil labelled MCF-7 cells under stereomicroscopy. After injection, zebrafish embryos with the same injection spot were randomly planted on a six-well plate. These xenograft zebrafish were sorted into four groups of about 15–20 zebrafish each and treated with 0.5, 1.0, 2.0 μg/mL of compound E10 for 48 h, 1.0 μM doxorubicin as a positive control group. After treatment, the fluorescence intensity of living cells was examined with laser confocal microscopy (Olympus, Tokyo, Japan).

MCF-7 cells [1] = assay: Comet assay (DNA damage); assay type: cell-based, human; conditions: 24 h
Description: DNA fragmentation is a hallmark of apoptosis, mitotic catastrophe, or both. DNA damage in MCF-7 cells was investigated by single-cell gel electrophoresis in an agarose gel matrix (the ‘comet assay’). In this assay, the length of the ‘comet tail’ observed after EB staining of the cell nuclei is an indicator of the extent of DNA damage.
MCF-7 cells were seeded in 24-well plastic plates at a density of 5 × 10^4 cells per well and treated with compound E10 for 24 h. The alkaline DNA comet assay was performed according to the instructions of the OxiSelectTM Comet Assay Kit (Cell Biolabs, San Diego, CA, USA, Cat. # STA-350) and analyzed using a Zeiss fluorescent microscope (Jena, Germany). The free software Casplab-1.2.3b2 (CAS PLab, Wroclaw, Poland) was used to calculate the percentage of tail DNA and Olive Tail Moment (OTM) as markers of DNA damage (Olive Tail Moment = Tail DNA (%) × Tail Moment Length).

LO2 = assay: CCK-8 cytotoxicity on normal cell line LO2; assay type: cell-based; conditions: Homo sapiens, L02; normal liver cells, CCK-8, 48 h, mean ± SD of three experiments
Description: (§1) Three cancer cell lines (human breast adenocarcinoma cells MCF-7, human lung adenocarcinoma epithelial cells A549, and human hepatocellular carcinoma cells HepG2) were obtained from the Cell Bank of the Chinese Academy of Sciences (Shanghai, China). LO2 human normal liver cells were also purchased from STEM RECELL (Beijing, China, STM-CL-5770). The anti-proliferation activity of compounds was tested on three cancer cell lines. The cytotoxicity of compounds as tested on normal cell line (human normal liver cells LO2). Cells were seeded at a density of 5000 cells per well in 96-well plates. Natural product piperlongumine was used as the positive control. All experiments were performed in triplicate. Three cancer cell lines were cultured in High DMEM medium or RIPM 1640 containing 10% FBS (Sijiqing, Hangzhou, China) and 1% antibiotics at 37 °C in a 5% CO2 incubator. The experimental cells were seeded in a 96-well plate at 5000 cells per well and incubated for 24 h. The old medium was replaced with experimental medium, and the cells were cultured for 48 h. Afterward, 10 µL of CCK-8 solution was added to each well, and the cells were incubated for 3 h. The absorbance at 450 nm was measured using a microplate reader.

MCF-7 cells [2] = assay: Annexin V/PI apoptosis assay by flow cytometry; assay type: cell-based, human
Description: The ability of drugs to induce cancer cell apoptosis is a key indicator of their chemotherapeutic potential. […] To examine the apoptotic effects of E10, an Annexin V-FITC dual-staining assay (with flow cytometric analysis) was performed. As shown in Figure 3A (also Figure 3C), treatment with increasing concentrations of E10 induced a marked elevation in apoptotic cell populations.
Autophagy has bidirectional regulation effects on cell survival. To confirm the role of autophagy in E10-induced cell death, 3-MA was used as an autophagy blocker.
MCF-7 cells were seeded at a density of 6 × 10^5 cells per well in 12-well plates and incubated in a 37 °C, 5% CO2 incubator for 24 h. After treatment with different concentrations of compound E10, the cells were washed with PBS two times, collected by trypsin enzymic digestion and centrifugation, and the collected cells were subsequently stained with 5 µL Annexin V-APC (YSRIBIO-C1084) and 5 µL PI for 10 min in the dark conditions. The cell apoptosis was measured with the flow cytometry (BD), and the data were analyzed by flowjo 10.6 software.

MCF-7 cells [3] = assay: Autophagy assay using transmission electron microscopy; assay type: cell-based, human; conditions: 24 h
Description: To investigate whether E10 induced autophagy in MCF-7 cells, we performed Monodansylcadaverine (MDC) staining, transmission electron microscopy (TEM), and Western blot analysis to evaluate autophagy-related markers. MDC is a fluorescent probe commonly used to detect the formation of autophagic vacuoles, as it specifically labels autophagosomes.
MCF-7 cells were treated with E10 for 24 h. Cells were washed twice with pre-cold PBS, fixed in 2% glutaraldehyde at 4 °C for 2 h. Then, the sample was post-fixed in 2% osmium tetroxide for 1 h at 4 °C in the dark. Samples were dehydrated through a graded ethanol series, infiltrated and embedded in Spurr’s resin, and polymerized at 60 °C overnight. Ultrathin sections (~70–90 nm) were cut on an ultramicrotome, mounted on copper grids, counterstained with uranyl acetate and lead citrate, and examined by transmission electron microscopy (JEM-100CX; JEOL, Tokyo, Japan) at the indicated magnifications.

HepG2 = assay: CCK-8 antiproliferative assay, HepG2; assay type: cell-based; conditions: Homo sapiens, HepG2; CCK-8, 48 h, mean ± SD of three experiments; read-out: IC50 HepG2
Description: After synthesis and characterization, the isolongifolenone bicyclocaprolactam derivatives were evaluated for their in vitro antiproliferative activity against three cancer cell lines (MCF-7, HepG2, A549) using a CCK-8 assay. […] In general, the antiproliferative activities of most of these compounds were similar, irrespective of whether electron-withdrawing or electron-donating substituents were introduced in the phenoxy ring.
as §1

[4] = Figure 6A, E10 or E10 + 3MA, 24 h

## CC1(C)C2=CC(=O)N(C(=O)C=Cc3cccc(C(F)(F)F)c3)CC(C)(C)C23CCC1C3 (centres unmarked) [E10, 5,5,9,9-Tetramethyl-3-(3-(3-(trifluoromethyl)phenyl)acryloyl)-4,5,6,7,8,9-hexahydro-5a,8-methanobenzo[d]azepin-2(3H)-one]
MCF-7 xenograft; 2.0 µg/mL E10, 48 h
  inhibition rate (decrease in fluorescence): 50.0%
MCF-7 xenograft; 48 h, compared with PBS control, Dox 1.0 μM
  fluorescence intensity of xenograft: notable reduction in fluorescence intensity
MCF-7 cells [1]
  DNA damage, comet formation: induced DNA fragmentation
LO2
  IC50: 14.41 ± 0.04 µM
MCF-7 cells [2]; E10 0.5 µM, 24 h
  apoptosis rate: 7.78%
MCF-7 cells [2]; E10 1.0 µM, 24 h
  apoptosis rate: 19.53%
MCF-7 cells [2]; E10 2.0 µM, 24 h
  apoptosis rate: 24.93%
MCF-7 cells [2]; [4]
  Q1 necrotic cells: 15.9
  Q2 late apoptotic cells: 9.62
  Q3 early apoptotic cells: 0.47
  Q4 viable cells: 74.0
MCF-7 cells [2]; Figure 6A, in comparison with control
  cell apoptosis with or without autophagy blocker 3-MA: significantly increased
MCF-7 cells [3]
  TEM, autophagic vesicles: presence of membrane-bound autophagic vesicles
HepG2
  IC50: 1.36 ± 0.18 µM
